Laboratory results reported in paper PMC5034817 (Journal of Neurochemistry, 2015).
Several values for one entry are separate records, joined by “and”; a condition that tells them apart may be missing. Equal entries are not always repeated. Entries after “also recorded” stand apart in the source; their conditions may differ.

B1: His6RGS4 (recombinant regulator of G protein signaling 4) (natural protein, UniProt P49799 1-205, looked up)
chain: MCKGLAGLPASCLRSAKDMKHRLGFLLQKSDSCEHSSSHSKKDKVVTCQRVSQEEVKKWAESLENLINHECGLAAFKAFLKSEYSEENIDFWISCEEYKKIKSPSKLSPKAKKIYNEFISVQATKEVNLDSCTREETSRNMLEPTITCFDEAQKKIFNLMEKDSYRRFLKSRFYLDLTNPSSCGAEKQKGAKSSADCTSLVPQCA

What was measured:
[1] = target: rat mu opioid receptor (MOR)/G protein complex (Rattus norvegicus, UniProt P33535+P59215); assay: Co-immunoprecipitation of Goα and RGS4 with solubilized MOR; format: biochemical; conditions: for amount of RGS4 co-immunoprecipitated with MOR: 1 μM DAMGO, 0.3 μM RGS4
Goα = Goα (Rattus norvegicus, UniProt P59215); assay: His6RGS4/Ni2+-NTA agarose pull-down of Goα from solubilized rat brain membranes; format: biochemical; conditions: for effect on association of Goα with His6RGS4: 100 μM GDP or 10 μM GTP alone
mu opioid receptor = mu opioid receptor (Homo sapiens, UniProt P35372); assay: biochemical
MOR = MOR (Homo sapiens, UniProt P35372); format: biochemical; conditions: presence of 1 μM RGS4
MOR/G protein complex = MOR/G protein complex (Rattus norvegicus, UniProt P33535); assay: Co-immunoprecipitation of Goα with MOR using anti-MOR349-398; format: biochemical; conditions: 1 µM DAMGO; IP with anti-MOR349-398; Figure S2c
[2] = test system: RGS4 mRNA levels in the locus coeruleus; conditions: 6 days of chronic morphine administration; ref Gold et al. 2003; cited from earlier work
[3] = target: mu opioid receptor (MOR), endogenous rat brain (rat, UniProt P33535 1-398); assay: co-IP
Go/Gi-type G proteins = format: biochemical, human; conditions: RGS4 added
[4] = target: B1; assay: pull-down

Chain of mu opioid receptor (P35372 whole entry): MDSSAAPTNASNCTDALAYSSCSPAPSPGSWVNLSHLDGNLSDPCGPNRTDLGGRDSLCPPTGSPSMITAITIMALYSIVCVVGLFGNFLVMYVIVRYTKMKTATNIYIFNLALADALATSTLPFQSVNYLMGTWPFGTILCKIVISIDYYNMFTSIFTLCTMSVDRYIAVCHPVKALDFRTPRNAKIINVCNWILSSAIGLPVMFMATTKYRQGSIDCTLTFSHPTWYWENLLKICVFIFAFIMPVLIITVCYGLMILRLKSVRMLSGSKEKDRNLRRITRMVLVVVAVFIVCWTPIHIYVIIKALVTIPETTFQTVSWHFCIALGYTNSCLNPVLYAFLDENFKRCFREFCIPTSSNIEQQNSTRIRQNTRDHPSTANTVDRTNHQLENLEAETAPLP
Chain of rat mu opioid receptor (MOR)/G protein complex (P33535 whole entry, one chain of several): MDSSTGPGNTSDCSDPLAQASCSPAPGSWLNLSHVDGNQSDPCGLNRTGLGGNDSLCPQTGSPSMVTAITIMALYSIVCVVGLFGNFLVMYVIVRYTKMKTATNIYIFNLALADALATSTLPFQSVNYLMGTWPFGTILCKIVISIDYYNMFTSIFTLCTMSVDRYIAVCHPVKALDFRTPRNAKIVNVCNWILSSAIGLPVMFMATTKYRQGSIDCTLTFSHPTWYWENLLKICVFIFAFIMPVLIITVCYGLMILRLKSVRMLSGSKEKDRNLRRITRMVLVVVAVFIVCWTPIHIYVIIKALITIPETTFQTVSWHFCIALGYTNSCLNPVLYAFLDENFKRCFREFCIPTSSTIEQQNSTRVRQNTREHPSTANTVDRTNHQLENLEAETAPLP
Chain of MOR (P35372 whole entry): as the sequence (P35372 whole entry) above
Chain of MOR/G protein complex (P33535 whole entry, one chain of several): as the sequence (P33535 whole entry, one chain of several) above
Chain of mu opioid receptor (MOR), endogenous rat brain (P33535 whole entry): as the sequence (P33535 whole entry, one chain of several) above

For C[C@@H](NC(=O)[C@@H](N)Cc1ccc(O)cc1)C(=O)NCC(=O)N(C)[C@@H](Cc1ccccc1)C(=O)NCCO [DAMGO, [D‐Ala^2, N‐Me‐Phe^4, Gly^5‐ol] enkephalin], the “increase in RGS4 co-immunoprecipitating with MOR” value ([1]; DAMGO during immunoprecipitation vs no addition) was 50% and 53%, the “effect on binding of Goα to RGS4” value (Goα; 1 μM DAMGO alone, without guanine nucleotide) was “did not affect” and the “Goα molecules whose affinity for GDP is decreased by MOR activation” value (Goα; DAMGO with 100 μM GDP and 0.3 μM GTPγS) was 40–50%. The “inhibition of forskolin-stimulated adenylyl cyclase activity” value (mu opioid receptor) was 21.8% ± 2.27, the “maximal inhibition, adenylyl cyclase activity reduced to” value (mu opioid receptor) was 3.28 pmoles cAMP formed in 10 min and 3.92 pmoles cAMP formed in 10 min and the inhibition at 1 µM (mu opioid receptor; read-out: inhibition of adenylyl cyclase activity) was 60.4 ± 2.97%. For the same molecule, the “maximal amount of [35S]GTPγS bound (Bmax)” value (MOR) was 1319 ± 82 dpm and the “increase in Goα co-immunoprecipitating with MOR” value (MOR/G protein complex) was roughly 2 fold.

With Nc1nc2c(ncn2[C@@H]2O[C@H](COP(=O)(O)OP(=O)(O)O)[C@@H](O)[C@H]2O)c(=O)[nH]1 [GDP] the “effect on association of Goα with His6RGS4” value (Goα) was “failed to affect; also recorded: Neither 100 μM GDP nor 10 μM GTP affected; also recorded: neither GTP nor GDP had an effect” and the “effect on GTPγS-enhanced Goα binding to RGS4” value (Goα; 100 μM GDP with 0.3 μM GTPγS) was “blocked this effect; also recorded: prevented; also recorded: return to the control level”.

For Nc1nc2c(ncn2[C@@H]2O[C@H](COP(=O)(O)OP(=O)(O)OP(=O)(O)O)[C@@H](O)[C@H]2O)c(=O)[nH]1 [GTP], the “effect on amount of Goα associated with MOR” value ([1]; 10 μM GTP added to DAMGO vs DAMGO alone) was “did not alter”, the “additional increase in RGS4 co-immunoprecipitating with MOR” value ([1]; 10 μM GTP with 1 μM DAMGO vs DAMGO alone) was 72% and 71.6% and the “effect on association of Goα with His6RGS4” value (Goα) was “failed to affect; also recorded: Neither 100 μM GDP nor 10 μM GTP affected; also recorded: neither GTP nor GDP had an effect”.

In the case of CN1CC[C@]23c4c5ccc(O)c4O[C@H]2[C@@H](O)C=C[C@H]3[C@H]1C5 [morphine], the “RGS4 mRNA levels in the locus coeruleus” value [2] is listed as “doubled”.

In the case of B1, the “stoichiometry N” value [3] is reported as roughly 1.

B2: RGS4: recombinant regulator of G protein signaling 4, His6-tagged, expressed in JM109 E. coli (protein)
chain: MCKGLAGLPASCLRSAKDMKHRLGFLLQKSDSCEHSSSHSKKDKVVTCQRVSQEEVKKWAESLENLINHECGLAAFKAFLKSEYSEENIDFWISCEEYKKIKSPSKLSPKAKKIYNEFISVQATKEVNLDSCTREETSRNMLEPTITCFDEAQKKIFNLMEKDSYRRFLKSRFYLDLTNPSSCGAEKQKGAKSSADCTSLVPQCA
modifications: left off: His6, end not stated, kept
With B2 the “amount of RGS4 co-immunoprecipitated with MOR” value ([1]; absence of GTPγS) was 9 ± 1.1 fmol, the “amount of RGS4 co-immunoprecipitated with MOR” value ([1]; presence of 1 μM GTPγS) was 28 fmol and 28.4 ± 5.4 fmol and the “ratio of MOR to RGS4 in the immunoprecipitate” value ([1]; presence of GTPγS) was 1–1. The “effect on GTPγS-mediated inhibition of adenylyl cyclase activity” value (Go/Gi-type G proteins) was “failed to attenuate; also recorded: failed to affect; also recorded: had no effect”.

B3: Goα, endogenous rat brain (natural protein, rat (endogenous in rat brain), UniProt P59215 1-354, looked up)
chain: MGCTLSAEERAALERSKAIEKNLKEDGISAAKDVKLLLLGAGESGKSTIVKQMKIIHEDGFSGEDVKQYKPVVYSNTIQSLAAIVRAMDTLGVEYGDKERKADSKMVCDVVSRMEDTEPFSAELLSAMMRLWGDSGIQECFNRSREYQLNDSAKYYLDSLDRIGAADYQPTEQDILRTRVKTTGIVETHFTFKNLHFRLFDVGGQRSERKKWIHCFEDVTAIIFCVALSGYDQVLHEDETTNRMHESLMLFDSICNNKFFIDTSIILFLNKKDLFGEKIKKSPLTICFPEYPGSNTYEDAAAYIQTQFESKNRSPNKEIYCHMTCATDTNNIQVVFDAVTDIIIANNLRGCGLY
With B3 the “fold increase of Goα bound to His6RGS4 with 0.3 uM GTPγS against control” value [4] was roughly 3 fold.
